In BindingDB's records for patent US20250313563 (The Broad Institute, 2025):
Values joined by “and” are separate entries in the source; they are usually repeats but may differ in a detail not shown here. Identical values can stand only once.

Tests used:
[1] = target: Glycogen synthase kinase-3 alpha (Homo sapiens, UniProt P49840); test: TR-FRET Assay
Outline: (§1)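 30 min preinc w/ cpd in assay buffer → kinase rxn → EDTA quench → add detection mix (40 nM SA-d2, 2 nM Tb-pSer641 Ab) → TR-FRET read.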

[2] = target: Glycogen synthase kinase-3 beta (Homo sapiens, UniProt P49841); test: TR-FRET Assay
Glycogen synthase kinase-3 beta, sequence (P49841 whole entry): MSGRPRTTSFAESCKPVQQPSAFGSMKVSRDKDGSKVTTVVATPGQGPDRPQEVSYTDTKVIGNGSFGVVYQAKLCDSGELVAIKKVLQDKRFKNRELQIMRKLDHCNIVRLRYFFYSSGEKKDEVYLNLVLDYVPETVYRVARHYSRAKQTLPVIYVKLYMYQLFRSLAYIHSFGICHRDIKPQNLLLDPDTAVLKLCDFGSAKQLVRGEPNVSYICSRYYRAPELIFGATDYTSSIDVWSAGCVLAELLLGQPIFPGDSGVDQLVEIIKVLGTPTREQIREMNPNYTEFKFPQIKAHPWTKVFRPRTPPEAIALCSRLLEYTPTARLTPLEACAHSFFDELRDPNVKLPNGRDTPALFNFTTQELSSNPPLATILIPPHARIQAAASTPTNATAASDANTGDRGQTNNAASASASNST
Outline: as §1

Glycogen synthase kinase-3 alpha, sequence (P49840 whole entry): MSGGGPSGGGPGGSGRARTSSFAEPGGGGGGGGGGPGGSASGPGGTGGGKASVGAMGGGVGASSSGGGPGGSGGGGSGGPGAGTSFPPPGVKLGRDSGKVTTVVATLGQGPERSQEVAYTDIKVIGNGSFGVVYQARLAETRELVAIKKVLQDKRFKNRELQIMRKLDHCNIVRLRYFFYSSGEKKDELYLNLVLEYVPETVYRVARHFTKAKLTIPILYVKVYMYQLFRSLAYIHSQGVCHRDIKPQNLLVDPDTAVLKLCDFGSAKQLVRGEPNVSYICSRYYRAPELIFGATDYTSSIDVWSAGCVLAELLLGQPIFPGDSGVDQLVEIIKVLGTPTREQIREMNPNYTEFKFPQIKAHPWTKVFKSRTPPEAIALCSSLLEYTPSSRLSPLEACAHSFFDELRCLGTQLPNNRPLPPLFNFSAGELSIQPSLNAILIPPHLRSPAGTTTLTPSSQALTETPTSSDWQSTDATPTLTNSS

SMILES	IC50 [1]	IC50 [2]
CC[C@@]1(c2cccc(Cc3ncccc3C(F)(F)F)c2)C2=CN=NC2NC2=C1C(=O)CC(C)(C)C2 (stereo partly specified) [US20250313563, Compound 947665]	1000 to 5000 nM	> 5000 nM
CC1(C)CC(=O)C2=C(C1)NC1=C(CN=N1)C21CS(=O)(=O)C1 [US20250313563, Compound 912170]	1000 to 5000 nM	> 5000 nM
CC[C@]1(c2cccc(CN(C)c3ccc(C(F)(F)F)nc3)c2)C2=CN=NC2NC2=C1C(=O)CC(C)(C)C2 (stereo partly specified) [US20250313563, Compound 945484]	> 5000 nM	> 5000 nM
CC[C@]1(c2cccc(Br)c2)C2=CN=NC2NC2=C1C(=O)C[C@H](C(F)(F)F)C2 (stereo partly specified) [US20250313563, Compound 826655]	> 5000 nM	> 5000 nM
CC1(C)CC(=O)C2=C(C1)NC1=C(CN=N1)[C@@]21CCO[C@H](C(C)(C)C)C1 [US20250313563, Compound 912107]	> 5000 nM	> 5000 nM
CCC1(c2cccc(-c3cnc(C)n3C)c2)C2=CN=NC2NC2=C1C(=O)CC(C)(C)C2 (stereo unspecified) [US20250313563, Compound 943531]	< 100 nM and 100 to 1000 nM	100 to 1000 nM and > 5000 nM
CC[C@]1(c2cccc(S(C)(=O)=O)c2)C2=CN=NC2NC2=C1C(=O)NC(C)(C)C2 (stereo partly specified) [US20250313563, Compound 945621]	1000 to 5000 nM	> 5000 nM
CO[C@H]1C[C@]2(C1)C1=C(N=NC1)NC1=C2C(=O)CC(C)(C)C1 [US20250313563, Compound 901472]	> 5000 nM	> 5000 nM
CC[C@@]1(c2cccc(-c3cc(C)ncc3C)c2)C2=C(CC(C)(C)NC2=O)NC2N=NC(C(F)(F)F)=C21 (stereo partly specified) [US20250313563, Compound 947364]	100 to 1000 nM	100 to 1000 nM
CC[C@]1(c2cc(N(C)C(C)=O)ccc2F)C2=C(CC(C)(C)CC2=O)NC2N=NC(C)=C21 (stereo partly specified) [US20250313563, Compound 929451]	> 5000 nM	> 5000 nM
COc1cncc(F)c1-c1cccc([C@]2(C)C3=C(CC(C)(C)CC3=O)NC3=C2C(CC(C)(C)C)N=N3)c1 (stereo partly specified) [US20250313563, Compound 108954]	1000 to 5000 nM	100 to 1000 nM
CC[C@]1(c2cccc(C(F)(F)F)c2)C2=CN=NC2NC2=C1C(=O)N(C(C)(C)C)CC2 (stereo partly specified) [US20250313563, Compound 945633]	> 5000 nM	> 5000 nM
CC1(C)CC(=O)C2=C(C1)NC1=C(CN=N1)C21CN(c2ccncn2)C1 [US20250313563, Compound 909209]	1000 to 5000 nM	1000 to 5000 nM
CC[C@@]1(c2cccc(-c3ccncc3C)c2)C2=CN=NC2NC2=C1C(=O)N[C@@]1(CCCOC1)C2 (stereo partly specified) [US20250313563, Compound 947909]	100 to 1000 nM	1000 to 5000 nM
CCC1(c2cccc(-c3ccnc(C)c3C)c2)C2=C(CC(C)(C)NC2=O)NC2N=NC(C)=C21 (stereo unspecified) [US20250313563, Compound 947399]	100 to 1000 nM	1000 to 5000 nM
CC1(C)CC(=O)C2=C(C1)NC1=C(CN=N1)C21CN(c2ccccn2)C1 [US20250313563, Compound 945477]	1000 to 5000 nM	1000 to 5000 nM
CC[C@@]1(c2cccc(-c3ccn(C)n3)c2)C2=C(CC(C)(C)CC2=O)NC2N=NC(C)=C21 (stereo partly specified) [US20250313563, Compound 913030]	< 100 nM and 100 to 1000 nM	< 100 nM and 100 to 1000 nM
CC[C@@]1(c2cccc(C(F)(F)F)c2)C2=C(N=NC2)NC2=C1C(=O)N(C)C2 [US20250313563, Compound 945368]	> 5000 nM	> 5000 nM
CC[C@@]1(c2cccc(N(C)c3ccnnc3)c2)C2=CN=NC2NC2=C1C(=O)CC(C)(C)C2 (stereo partly specified) [US20250313563, Compound 915630]	100 to 1000 nM	1000 to 5000 nM
CC1(C)CC(=O)C2=C(C1)NC1N=NC(CCC(F)(F)F)=C1[C@]21CCc2c(F)cccc21 (stereo partly specified) [US20250313563, Compound 874324]	100 to 1000 nM	100 to 1000 nM
CC1(C)CC(=O)C2=C(C1)NC1=C(CN=N1)C21CCN(S(=O)(=O)c2ccc(F)cc2)CC1 [US20250313563, Compound 893311]	< 100 nM and 100 to 1000 nM	< 100 nM and 1000 to 5000 nM
CC[C@]1(c2cccc(C(F)(F)C(F)(F)F)c2)C2=CN=NC2NC2=C1C(=O)CC(C)(C)C2 (stereo partly specified) [US20250313563, Compound 949103]	< 100 nM and 100 to 1000 nM	< 100 nM and 100 to 1000 nM

Results, then the compound that gave them:

IC50 [1]	IC50 [2]	SMILES
< 100 nM	< 100 nM and 100 to 1000 nM	CCC1(c2cccc(-c3cc(C)nn3C)c2)C2=C(CC(C)(C)CC2=O)NC2N=NC(C(F)(F)F)=C21 (stereo unspecified) [US20250313563, Compound 945532]
100 to 1000 nM	1000 to 5000 nM	CCC1(c2cccc(Br)c2)C2=CN=NC2NC2=C1C(=O)NC(C)C2 (stereo unspecified) [US20250313563, Compound 913225]
< 100 nM	100 to 1000 nM	CCC1(c2cccc(-c3cnn(CCOC)c3)c2)C2=C(CC(C)(C)CC2=O)NC2N=NC(C)=C21 (stereo unspecified) [US20250313563, Compound 883996]
< 100 nM	< 100 nM	CC1(C)CC(=O)C2=C(C1)NC1=C(CN=N1)C21CN(c2ccccc2)C1 [US20250313563, Compound 948298]
< 100 nM	100 to 1000 nM	CC[C@]1(c2ccccc2)C2=C(CC(C)(C)CC2=O)NC2N=NC(C(F)F)=C21 (stereo partly specified) [US20250313563, Compound 874511]
< 100 nM	< 100 nM	CC1(C)CC(=O)C2=C(C1)NC1=C(CN=N1)C21CCN(S(C)(=O)=O)C1 (stereo unspecified) [US20250313563, Compound 912092]
100 to 1000 nM	1000 to 5000 nM	CN(C)C(=O)C1CCC2(CC1)C1=C(N=NC1)NC1=C2C(=O)CC(C)(C)C1 (stereo unspecified) [US20250313563, Compound 945395]
< 100 nM	< 100 nM and 100 to 1000 nM	CCC1(c2cccc(-c3ccnc4c3CCC4)c2)C2=C(CC(C)(C)NC2=O)NC2N=NC(C(F)(F)F)=C21 (stereo unspecified) [US20250313563, Compound 947862]
100 to 1000 nM	> 5000 nM	CC[C@@]1(c2cccc(-c3cnn(-c4cccnc4)c3)c2)C2=CN=NC2NC2=C1C(=O)NC(C)(C)C2 (stereo partly specified) [US20250313563, Compound 952024]
100 to 1000 nM	100 to 1000 nM	C[C@@H]1C[C@@]2(CCN1S(=O)(=O)c1ccn(C)n1)C1=C(N=NC1)NC1=C2C(=O)CC(C)(C)C1 [US20250313563, Compound 917160]
< 100 nM	100 to 1000 nM	CC[C@@]1(c2cccc(C3=C4CC=CC(C)=C4N=CC3)c2)C2=CN=NC2NC2=C1C(=O)NC(C)(C)C2 (stereo partly specified) [US20250313563, Compound 952909]
< 100 nM	100 to 1000 nM	CCC1(c2cccc(Cl)c2)C2=C(CC(C)(C)CC2=O)NC2N=NC(C)=C21 (stereo unspecified) [US20250313563, Compound 789336]
100 to 1000 nM	1000 to 5000 nM	Cc1cc(C)cc(C(=O)N2CC3(C2)C[C@]2(CO3)C3=C(N=NC3)NC3=C2C(=O)CC(C)(C)C3)c1 [US20250313563, Compound 948222]
100 to 1000 nM	100 to 1000 nM	CC1(C)CC(=O)C2=C(C1)NC1=C(CN=N1)[C@]21CCO[C@@H](C(F)(F)F)C1 [US20250313563, Compound 884021]
100 to 1000 nM	1000 to 5000 nM	CC1(C)CC(=O)C2=C(C1)NC1=C(CN=N1)[C@@]21CCOC1 [US20250313563, Compound 877314]
100 to 1000 nM	100 to 1000 nM	CCC1(c2cccc(N(C)c3ccc(OC)nc3)c2)C2=CN=NC2NC2=C1C(=O)CC(C)(C)C2 (stereo unspecified) [US20250313563, Compound 913252]

IC50 [1]	IC50 [2]	SMILES
< 100 nM	100 to 1000 nM	C[C@]1(c2ccccc2)C2=C(N=NC2)NC2=C1C(=O)CC1(CCCC1)C2 [US20250313563, Compound 792338]
< 100 nM	100 to 1000 nM	CCC1(c2cccc(-c3cc(C)ncn3)c2)C2=CN=NC2NC2=C1C(=O)CC(C)(C)C2 (stereo unspecified) [US20250313563, Compound 948089]
< 100 nM	100 to 1000 nM	CCC1(c2cccc(-c3ccnc(OC(F)F)c3)c2)C2=CN=NC2NC2=C1C(=O)CC(C)(C)C2 (stereo unspecified) [US20250313563, Compound 932629]
< 100 nM	< 100 nM	CC1(C)CC(=O)C2=C(C1)NC1N=NC(C(F)(F)F)=C1C21CCc2c(F)cccc21 (stereo unspecified) [US20250313563, Compound 801356]
< 100 nM	< 100 nM	CCC1(c2cccc(-c3ccncc3C)c2)C2=CN=NC2NC2=C1C(=O)NC(C)(C)C2 (stereo unspecified) [US20250313563, Compound 945461]
< 100 nM	100 to 1000 nM	CC[C@@]1(c2cccc(-c3c(C)c(C)nn3C)c2)C2=CN=NC2NC2=C1C(=O)NC(C)(C)C2 (stereo partly specified) [US20250313563, Compound 950062]
< 100 nM	< 100 nM	Cc1cnccc1[C@H]1CC[C@@]2(CC1)C1=C(N=NC1)NC1=C2C(=O)CC(C)(C)C1 [US20250313563, Compound 949319]
< 100 nM	< 100 nM and 100 to 1000 nM	CC1(C)CC(=O)C2=C(C1)NC1=C(CN=N1)C21CCN(S(=O)(=O)C2CCCC2)CC1 [US20250313563, Compound 909206]
< 100 nM	< 100 nM	C[C@H]1C[C@]2(CCN1S(=O)(=O)c1ccn(C)n1)C1=C(N=NC1)NC1=C2C(=O)CC(C)(C)C1 [US20250313563, Compound 926815]
< 100 nM	< 100 nM	CCc1ncc(S(=O)(=O)N2CCC3(CC2)C2=C(N=NC2)NC2=C3C(=O)CC(C)(C)C2)s1 [US20250313563, Compound 947252]
< 100 nM	< 100 nM	CC[C@@]1(c2cccc(-c3c([N+](=O)O)c(C)nn3C)c2)C2=CN=NC2NC2=C1C(=O)NC(C)(C)C2 (stereo partly specified) [US20250313563, Compound 952209]
< 100 nM	100 to 1000 nM	CCC1(c2cccc(-c3ncnc(C)c3C)c2)C2=CN=NC2NC2=C1C(=O)CC(C)(C)C2 (stereo unspecified) [US20250313563, Compound 948090]
< 100 nM	< 100 nM	CC[C@]1(c2cccc(S(=O)(=O)CC3CC3)c2)C2=C(CC(C)(C)NC2=O)NC2N=NC(C(F)(F)F)=C21 (stereo partly specified) [US20250313563, Compound 949175]
< 100 nM	100 to 1000 nM	CCC1(c2cccc(C(F)(F)F)c2)C2=CN=NC2NC2=C1C(=O)N(C)C(C)(C)C2 (stereo unspecified) [US20250313563, Compound 823130]
< 100 nM	100 to 1000 nM	COc1ccc(S(=O)(=O)N2CCC[C@@]3(CC2)C2=CN=NC2NC2=C3C(=O)CC(C)(C)C2)cc1 (stereo partly specified) [US20250313563, Compound 932661]
